Results from BindingDB's records for doi:10.1021/jm2004442 (Amgen, 2011).
pIC50: −log10 of the molar value.

target: RAC-alpha serine/threonine-protein kinase (Homo sapiens, UniProt P31749); test: Inhibition of PI3K-mediated Akt phosphorylation at Ser 473 in human U87MG cells after 2 hrs by alphascreen assay
Sequence (P31749 whole entry): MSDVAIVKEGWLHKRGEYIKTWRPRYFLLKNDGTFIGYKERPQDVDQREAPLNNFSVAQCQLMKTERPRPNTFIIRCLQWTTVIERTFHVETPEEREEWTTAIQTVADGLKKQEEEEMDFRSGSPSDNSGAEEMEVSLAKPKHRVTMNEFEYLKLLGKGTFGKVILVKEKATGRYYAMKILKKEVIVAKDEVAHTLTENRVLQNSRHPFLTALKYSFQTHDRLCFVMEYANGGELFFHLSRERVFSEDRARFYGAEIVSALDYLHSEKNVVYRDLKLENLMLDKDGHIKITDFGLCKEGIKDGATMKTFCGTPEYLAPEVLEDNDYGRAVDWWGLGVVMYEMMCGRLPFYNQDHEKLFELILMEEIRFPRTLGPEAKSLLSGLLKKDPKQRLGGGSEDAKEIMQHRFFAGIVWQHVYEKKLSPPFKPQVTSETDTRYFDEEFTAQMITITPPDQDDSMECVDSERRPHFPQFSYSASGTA

pIC50	SMILES
7.89	CC(=O)Nc1cn2nc(-c3cnc(Cl)c(NS(=O)(=O)c4ccc(F)cc4)c3)ccc2n1
< 4.92	Nc1cn2cc(-c3cnc(Cl)c(NS(=O)(=O)c4ccc(F)cc4)c3)ccc2n1
< 4.92	O=S(=O)(Nc1cc(-c2ccc3nc[nH]c3c2)cnc1Cl)c1ccc(F)cc1
7.00	Nc1nc2ccc(-c3cnc(Cl)c(NS(=O)(=O)c4ccc(F)cc4)c3)cc2o1
< 4.92	O=S(=O)(Nc1cc(-c2ccc3ncoc3c2)cnc1Cl)c1ccc(F)cc1

Further lines, the compound ahead of its results:

SMILES	pIC50
Nc1cn2nc(-c3cnc(Cl)c(NS(=O)(=O)c4ccc(F)cc4)c3)ccc2n1	6.38
CC(=O)Nc1cn2cc(-c3cnc(Cl)c(NS(=O)(=O)c4ccc(F)cc4)c3)ccc2n1	6.93
O=S(=O)(Nc1cc(-c2ccc3nccn3c2)cnc1Cl)c1ccc(F)cc1	6.24
CC(=O)Nc1nc2ccc(-c3cnc(Cl)c(NS(=O)(=O)c4ccc(F)cc4)c3)cc2[nH]1	6.47
Nc1nc2ccc(-c3cnc(Cl)c(NS(=O)(=O)c4ccc(F)cc4)c3)cc2[nH]1	< 4.92
CC(=O)Nc1nc2ccc(-c3cnc(Cl)c(NS(=O)(=O)c4ccc(F)cc4)c3)cc2o1	5.96
O=S(=O)(Nc1cc(-c2ccc3nncn3c2)cnc1Cl)c1ccc(F)cc1	< 4.92
O=S(=O)(Nc1cc(-c2ccc3sncc3c2)cnc1Cl)c1ccc(F)cc1	< 4.92
